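Values below derive from 48-hour exposures of cells grown in 96-well plates, with endpoints linearly interpolated between the two concentrations bracketing the appropriate inhibition level. TGI: concentration producing complete growth inhibition.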
Legend:
Experiment in all cases: inhibition of tumour cell growth, NCI panel, 48 h
786-0 renal = system: 786-0 renal
A498 renal = system: A498 renal
A549 NSCLC = system: A549 NSCLC
ACHN renal = system: ACHN renal
CAKI-1 renal = system: CAKI-1 renal
CCRF-CEM leukemia = system: CCRF-CEM leukemia
COLO 205 colon = system: COLO 205 colon
DU-145 prostate = system: DU-145 prostate
EKVX NSCLC = system: EKVX NSCLC
HCC-2998 colon = system: HCC-2998 colon
HCT-116 colon = system: HCT-116 colon
HCT-15 colon = system: HCT-15 colon
HL-60(TB) leukemia = system: HL-60(TB) leukemia
HOP-62 NSCLC = system: HOP-62 NSCLC
HOP-92 NSCLC = system: HOP-92 NSCLC
HS 578T breast = system: HS 578T breast
HT29 colon = system: HT29 colon
IGROV1 ovarian = system: IGROV1 ovarian
K-562 leukemia = system: K-562 leukemia
KM12 colon = system: KM12 colon
LOX IMVI melanoma = system: LOX IMVI melanoma
M14 melanoma = system: M14 melanoma
MALME-3M melanoma = system: MALME-3M melanoma
MCF7 breast = system: MCF7 breast
MDA-MB-231 breast = system: MDA-MB-231 breast
MDA-MB-435 = system: MDA-MB-435
MDA-N = system: MDA-N
MOLT-4 leukemia = system: MOLT-4 leukemia
NCI-H226 lung = system: NCI-H226 lung
NCI-H23 lung = system: NCI-H23 lung
NCI-H460 lung = system: NCI-H460 lung
NCI-H522 lung = system: NCI-H522 lung
NCI/ADR-RES ovarian = system: NCI/ADR-RES ovarian
OVCAR-3 ovarian = system: OVCAR-3 ovarian
OVCAR-4 ovarian = system: OVCAR-4 ovarian
OVCAR-5 ovarian = system: OVCAR-5 ovarian
OVCAR-8 ovarian = system: OVCAR-8 ovarian
PC-3 prostate = system: PC-3 prostate
RPMI-8226 leukemia = system: RPMI-8226 leukemia
RXF 393 renal = system: RXF 393 renal
SF-268 CNS = system: SF-268 CNS
SF-295 CNS = system: SF-295 CNS
SF-539 CNS = system: SF-539 CNS
SK-MEL-28 melanoma = system: SK-MEL-28 melanoma
SK-MEL-5 melanoma = system: SK-MEL-5 melanoma
SK-OV-3 ovarian = system: SK-OV-3 ovarian
SN12C renal = system: SN12C renal
SNB-19 CNS = system: SNB-19 CNS
SNB-75 CNS = system: SNB-75 CNS
SR leukemia = system: SR leukemia
SW-620 colon = system: SW-620 colon
T-47D breast = system: T-47D breast
TK-10 renal = system: TK-10 renal
U251 CNS = system: U251 CNS
UACC-257 melanoma = system: UACC-257 melanoma
UACC-62 melanoma = system: UACC-62 melanoma
UO-31 renal = system: UO-31 renal
SK-MEL-2 melanoma = system: SK-MEL-2 melanoma

CN(C)c1nc(=NCc2cccs2)ss1
TGI (786-0 renal): > 10 µM
TGI (A498 renal): > 10 µM
TGI (A549 NSCLC): > 10 µM
TGI (ACHN renal): > 10 µM
TGI (CAKI-1 renal): > 10 µM
TGI (CCRF-CEM leukemia): 1.83 µM
TGI (COLO 205 colon): > 10 µM
TGI (DU-145 prostate): > 10 µM
TGI (EKVX NSCLC): > 10 µM
TGI (HCC-2998 colon): > 10 µM
TGI (HCT-116 colon): > 10 µM
TGI (HCT-15 colon): > 10 µM
TGI (HL-60(TB) leukemia): 2.16 µM
TGI (HOP-62 NSCLC): > 10 µM
TGI (HOP-92 NSCLC): > 10 µM
TGI (HS 578T breast): > 10 µM
TGI (HT29 colon): > 10 µM
TGI (IGROV1 ovarian): > 10 µM
TGI (K-562 leukemia): > 10 µM
TGI (KM12 colon): > 10 µM
TGI (LOX IMVI melanoma): > 10 µM
TGI (M14 melanoma): > 10 µM
TGI (MALME-3M melanoma): > 10 µM
TGI (MCF7 breast): > 10 µM
TGI (MDA-MB-231 breast): > 10 µM
TGI (MDA-MB-435): > 10 µM
TGI (MDA-N): > 10 µM
TGI (MOLT-4 leukemia): > 6.29 µM
TGI (NCI-H226 lung): > 10 µM
TGI (NCI-H23 lung): > 10 µM
TGI (NCI-H460 lung): > 10 µM
TGI (NCI-H522 lung): 9.57 µM
TGI (NCI/ADR-RES ovarian): > 10 µM
TGI (OVCAR-3 ovarian): > 10 µM
TGI (OVCAR-4 ovarian): > 10 µM
TGI (OVCAR-5 ovarian): > 10 µM
TGI (OVCAR-8 ovarian): > 10 µM
TGI (PC-3 prostate): > 10 µM
TGI (RPMI-8226 leukemia): > 10 µM
TGI (RXF 393 renal): > 10 µM
TGI (SF-268 CNS): > 10 µM
TGI (SF-295 CNS): > 10 µM
TGI (SF-539 CNS): > 10 µM
TGI (SK-MEL-28 melanoma): > 10 µM
TGI (SK-MEL-5 melanoma): > 10 µM
TGI (SK-OV-3 ovarian): > 10 µM
TGI (SN12C renal): > 10 µM
TGI (SNB-19 CNS): > 10 µM
TGI (SNB-75 CNS): > 10 µM
TGI (SR leukemia): > 4.9 µM
TGI (SW-620 colon): > 10 µM
TGI (T-47D breast): > 10 µM
TGI (TK-10 renal): > 10 µM
TGI (U251 CNS): > 10 µM
TGI (UACC-257 melanoma): > 10 µM
TGI (UACC-62 melanoma): > 10 µM
TGI (UO-31 renal): > 10 µM

COc1cc2c(cc1OC)C1CCc3ccccc3CN1CC2 (stereo not drawn)
TGI (786-0 renal): > 100 µM
TGI (A498 renal): > 100 µM
TGI (A549 NSCLC): > 100 µM
TGI (ACHN renal): > 100 µM
TGI (CAKI-1 renal): > 100 µM
TGI (CCRF-CEM leukemia): > 100 µM
TGI (COLO 205 colon): > 100 µM
TGI (DU-145 prostate): > 100 µM
TGI (EKVX NSCLC): > 100 µM
TGI (HCC-2998 colon): > 100 µM
TGI (HCT-116 colon): > 100 µM
TGI (HCT-15 colon): > 100 µM
TGI (HL-60(TB) leukemia): > 100 µM
TGI (HOP-62 NSCLC): > 100 µM
TGI (HOP-92 NSCLC): > 100 µM
TGI (HS 578T breast): > 100 µM
TGI (HT29 colon): > 100 µM
TGI (IGROV1 ovarian): > 100 µM
TGI (K-562 leukemia): > 100 µM
TGI (KM12 colon): > 100 µM
TGI (LOX IMVI melanoma): > 100 µM
TGI (M14 melanoma): > 100 µM
TGI (MALME-3M melanoma): > 100 µM
TGI (MCF7 breast): > 100 µM
TGI (MDA-MB-231 breast): > 100 µM
TGI (MDA-MB-435): > 100 µM
TGI (MDA-N): > 100 µM
TGI (MOLT-4 leukemia): > 100 µM
TGI (NCI-H226 lung): > 100 µM
TGI (NCI-H23 lung): > 100 µM
TGI (NCI-H460 lung): > 100 µM
TGI (NCI-H522 lung): > 100 µM
TGI (NCI/ADR-RES ovarian): > 100 µM
TGI (OVCAR-3 ovarian): > 100 µM
TGI (OVCAR-4 ovarian): > 100 µM
TGI (OVCAR-5 ovarian): > 100 µM
TGI (OVCAR-8 ovarian): > 100 µM
TGI (PC-3 prostate): > 100 µM
TGI (RXF 393 renal): > 100 µM
TGI (SF-268 CNS): > 100 µM
TGI (SF-295 CNS): > 100 µM
TGI (SF-539 CNS): > 100 µM
TGI (SK-MEL-2 melanoma): > 100 µM
TGI (SK-MEL-28 melanoma): > 100 µM
TGI (SK-MEL-5 melanoma): > 100 µM
TGI (SK-OV-3 ovarian): > 100 µM
TGI (SN12C renal): > 100 µM
TGI (SNB-19 CNS): > 100 µM
TGI (SNB-75 CNS): > 100 µM
TGI (SR leukemia): > 100 µM
TGI (SW-620 colon): > 100 µM
TGI (T-47D breast): > 100 µM
TGI (TK-10 renal): > 100 µM
TGI (U251 CNS): > 100 µM
TGI (UACC-257 melanoma): > 100 µM
TGI (UACC-62 melanoma): > 100 µM

Source: PubChem BioAssay (NCI)
